Laboratory results from patent US20190175528A1, “INHIBITION OF BIOFILM ORGANISMS” (NovaBiotics Limited, priority 2009, published 2019).
Read-outs that look alike come from different tables or passages of the source.

Columns and labels:
[1] = test system: P. aeruginosa strains (7); assay: microbe, parasite or virus in culture; assay type: cell-based, Pseudomonas aeruginosa; conditions: agent alone; range over strains
Procedure: (§1) The bacterial inoculum was established by the dilution method from actively-growing cultures in Mueller-Hinton broth, standardized with 0.5 McFarland turbidity standard as described in the CLSI method M26-A.
(§2) To determine the prevention of biofilm formation, both the bacterial inoculum and the antimicrobial agents were added simultaneously to the plates. The plates were incubated at 37° C. for 24 h and the optical density was read at 625 nm on a microtitre plate reader (BioTek Powerwave XS, Winooski, USA). The MIC was obtained as the lowest concentration of antimicrobial showing total inhibition of bacterial growth.
(§3) The FIC corresponds to an interaction coefficient indicating whether the combination of antimicrobial agents is synergistic, additive, antagonist or neutral. The FIC is determined by comparing the activity of an agent in combination (MIC of agent A+agent B) with the activity of the agent alone (MIC of agent A or agent B) as follow (Singh et al., 2000):
(§4) FIC=MICA[combination]/MICA[alone]+MICB[combination]/MICB[alone]
(§5) Additive combinations of two antimicrobial agents are indicated by a FIC index of 1, whereas a FIC index <1 indicates synergistic combinations. Neutral combinations would give a FIC between 1 and 4, a FIC index higher than 4 indicates antagonist effects between the two antimicrobial agents.
(§6) Summary of the activity of the tested antimicrobial agents against the Gram-negative P. aeruginosa strains and the Gram-positive Staphylococcus spp. The number into brackets indicates the maximum number of strains tested. MIC: minimum inhibition concentration; MBEC: minimum biofilm eradication concentration; FIC: fractional inhibitory concentration.

Staphylococcus spp (4) = assay: microbe, parasite or virus in culture; assay type: cell-based; conditions: agent alone; range over strains
Procedure: as §1, §2, §3, §4, §5, §6

[2] = test system: P. aeruginosa strains (7) biofilm cells; assay type: cell-based, Pseudomonas aeruginosa; conditions: agent alone
Procedure: (§7) The FIC was also calculated to assess the interaction of two antimicrobial agents in combination against bacterial biofilms. The same formulae applied, using MBEC instead of MIC.
(§8) A total volume of 100 μl bacterial inoculum in Mueller-Hinton was added to each well of 96-well plates (challenge plates) and the plates were incubated at 37° C. for 24 h on a gyrorotary shaking platform (Grant-bio PS-3D, Shepreth, England) at 24 rpm to allow for biofilm formation.
(§9) The challenge plates were then rinsed once with sterile PBS (lx) and two-fold serial dilutions of antimicrobial agents in Mueller-Hinton were added to the challenge plates. The challenge plates were incubated at 37° C. for 24 h on a gyrorotary shaking platform (Grant-bio PS-3D, Shepreth, England) at 24 rpm.
(§10) The supernatants from each of the challenge plates were transferred into fresh plates and the optical density was measured at 625 nm on a microtitre plate reader (BioTek Powerwave XS, Winooski, USA). The MBEC was obtained by the lowest concentration of antimicrobial showing no bacterial growth.
as §6

[3] = test system: P. aeruginosa strains (7) persister cells; assay: Persister cells in biofilms (live/dead staining), summary over strains; assay type: cell-based, Pseudomonas aeruginosa; conditions: agent alone
Procedure: (§11) Following transfer of the supernatant from the challenge plates, the biofilms were rinsed once with sterile PBS (lx) and 100 μl of BacLight live/dead fluorescent staining solution (Invitrogen, Paisley, UK) containing 4 μM SYTO9 and 20 μM propidium iodide (PI) in sterile PBS (lx) were added to the wells of the challenge plates. The plates were incubated at room temperature in the dark for 15 min and the fluorescence was read at 485(ex)/528(em) and 485(ex)/645(em) for SYTO9 and PI fluorescence, respectively on a fluorescence microtitre plate reader (BioTek Synergy HT, Winooski, USA) with the sensitivity set at 50 and bottom optics position was selected. Direct observation of the biofilms with an Axiovert 40 fluorescence microscope (Zeiss, Gottingen, Germany) allowed identifying the presence of live and dead bacteria and pictures of the biofilms were taken at 100 to 400-fold magnification.
(§12) The relative viability of persister cells was determined by the live/dead fluorescence measurements ratio and microscopic observations were used to confirm the presence or absence of live cells.
as §6

[4] = test system: Staphylococcus spp (4) persister cells; assay: as above; assay type: cell-based; conditions: agent alone
Procedure: as §11, §12, §6

[5] = test system: P. aeruginosa ATCC BAA-47 (PAO1) biofilm cells; assay: MBEC against 24 h-old biofilm; assay type: cell-based, Pseudomonas aeruginosa
Procedure: as §7, §8, §9, §10
(§13) The assessment of the activity of NP108 and cysteamine against bacterial biofilms was carried out with 24 h-old biofilms and the activity of both compounds in combination was also determined. The activity of the antimicrobial agents against bacterial biofilms was determined by their activity against the biofilm cells and against the persister cells.

[6] = test system: S. aureus DSM 11729 biofilm cells; assay type: cell-based, Staphylococcus aureus
Procedure: as §7, §8, §9, §10, §13

[7] = test system: S. epidermidis 12228 biofilm cells; assay: MBEC against 24 h-old biofilm; assay type: cell-based, Staphylococcus epidermidis; conditions: agent alone
Procedure: as §8, §9, §10, §13

[8] = test system: P. aeruginosa ATCC27853 biofilm cells; assay type: cell-based, Pseudomonas aeruginosa
Procedure: as §8, §9, §10

[9] = test system: P. aeruginosa ATCC BAA-47 (PAO1) persister cells; assay: Relative viability of persister cells (SYTO9/PI live/dead fluorescence, microscopy); assay type: cell-based, Pseudomonas aeruginosa; conditions: agent alone
Procedure: as §11, §12
The activity of NP108 and cysteamine against the persister cells was assessed using a fluorescence staining method to determine the relative viability of the cells. The nucleic acid-binding fluorescent molecules used were SYTO9 and PI, which penetrate all bacterial cells (green fluorescence) and membrane-disrupted cells (red fluorescence), respectively.

[10] = test system: P. aeruginosa ATCC27853 persister cells; assay: Relative viability of persister cells (SYTO9/PI live/dead fluorescence); assay type: cell-based, Pseudomonas aeruginosa; conditions: 1024 μg/ml NP341+3128 μg/ml N-acetylcysteine; FIG. 20b
Procedure: as §11, §12

[11] = test system: methicillin-resistant S. aureus (MRSA) DSM 11729 planktonic cells; assay: Time course activity over a 48-h period against planktonic cells; assay type: cell-based, Staphylococcus aureus; conditions: 0.25 mg/ml
Source text: The range of concentrations tested as shown in the legends is in mg/ml.

[12] = test system: S. aureus DSM 11729 (MRSA); assay: microbe, parasite or virus in culture; assay type: cell-based, Staphylococcus aureus
Procedure: as §1
as §2, with “growth. […]” for “growth.”
(§14) FIC=MICA[combination]/MICA[alone]+MICB[combination]/MICB[alone] […]
(§15) In order to assess for the prevention of biofilm formation by both Gram-positive and Gram-negative bacteria, the bacterial inoculum and antimicrobial agents were added simultaneously in the plates. The range of concentrations of antimicrobial agents was 0-500 μg/ml NP108 and 0-320 μg/ml cysteamine against the Gram-negative bacteria P. aeruginosa ATCC BAA-47 and 0-1000 μg/ml NP108 and 0-320 μg/ml cysteamine against the Gram-positive MRSA.

[13] = test system: P. aeruginosa ATCC BAA-47; assay: microbe, parasite or virus in culture; assay type: cell-based, Pseudomonas aeruginosa
Procedure: as §1
as §2, with “growth. […]” for “growth.”
as §14, §15

[14] = test system: Staphylococcus spp (4) biofilm cells; assay type: cell-based; conditions: agent alone; biofilm cells
Procedure: as §7, §8, §9, §10, §6

[15] = test system: S. aureus DSM 11729 persister cells; assay: Relative viability of persister cells (SYTO9/PI live/dead fluorescence, microscopy); assay type: cell-based, Staphylococcus aureus; conditions: agent alone, at low concentrations; FIG. 18
Procedure: as §11, §12
The activity of NP108 and cysteamine against the persister cells was assessed using a fluorescence staining method to determine the relative viability of the cells. […]

[16] = test system: S. aureus DSM 11729 (MRSA); conditions: data not shown
[17] = test system: P. aeruginosa ATCC BAA-47; conditions: data not shown
[18] = agent alone, prevention of biofilm formation, 24 h

Compound: N=C(N)NCCC[C@@H](N)C(=O)N[C@H](CCCNC(=N)N)C(=O)N[C@H](CCCNC(=N)N)C(=O)N[C@H](CCCNC(=N)N)C(=O)N[C@H](CCCNC(=N)N)C(=O)N[C@H](CCCNC(=N)N)C(=O)N[C@H](CCCNC(=N)N)C(=O)N[C@H](CCCNC(=N)N)C(=O)N[C@H](CCCNC(=N)N)C(=O)N[C@H](CCCNC(=N)N)C(=O)N[C@H](CCCNC(=N)N)C(=O)N[C@H](CCCNC(=N)N)C(=O)N[C@H](CCCNC(=N)N)C(N)=O [NP341, dRdRdRdRdRdRdRdRdRdRdRdRdR-CONH]
- MIC, P. aeruginosa strains (7) [1]: 31.25 µg/mL
- MIC, Staphylococcus spp (4) (Staphylococcus spp (4)): 250 µg/mL
- MBEC, P. aeruginosa strains (7) [2]: >5,000 μg/ml
- Persisters, active concentration, P. aeruginosa strains (7) [3]: 625 µg/mL
- decrease of viability of persister cells of the 3 Staphylococcus species ([4]; FIG. 8): 25 to 50%
- reduction of viability of biofilm cells, P. aeruginosa BAA-47 (PAO1) ([5]; agent alone, FIG. 7): 2 to 3 fold
- MBEC, S. aureus (MRSA) DSM 11729 biofilm cells ([6]; agent alone): 625 µg/mL
- reduction of viability of biofilm cells, MRSA 11729 ([6]; agent alone, FIG. 7): 2 to 3 fold
- MBEC, S. epidermidis 12228 biofilm cells [7]: 625 µg/mL
- MBEC alone, P. aeruginosa ATCC27853 ([8]; agent alone, FIG. 21a): more than 2 mg/ml
- NP341 needed to reach the MBEC in combination, P. aeruginosa ATCC27853 ([8]; in combination with 3-6 mg/ml of N-acetylcysteine, FIG. 20a): 205 µg/mL
- concentration that inhibits the viability of P. aeruginosa BAA-47 (PAO1) persister cells ([9]; FIG. 6, FIG. 8): 625 µg/mL
- inhibition of persister cells, P. aeruginosa ATCC27853 [10]: approximately 75%
- duration of complete inhibition [11]: 48 h

Compound: poly-L-lysine, hydrobromide [NP108]
- MIC of NP108 in the presence of cysteamine, S. aureus DSM 11729 ([12]; 320 μg/ml cysteamine added): 15.625 µg/mL
- MIC, S. aureus DSM 11729 [12, 18]: 125 µg/mL
- MIC of NP108 in the presence of cysteamine, S. aureus DSM 11729 ([12]; in the presence of 40 μg/ml cysteamine): 31.25 µg/mL
- MIC, P. aeruginosa ATCC BAA-47 [13, 18]: 62.5 µg/mL
- MIC of NP108 in the presence of cysteamine, P. aeruginosa ATCC BAA-47 ([13]; in the presence of 160 μg/ml cysteamine): 31.25 µg/mL
- MIC, P. aeruginosa strains (7) [1]: 31.25 to 500 µg/mL
- MIC, Staphylococcus spp (4) (Staphylococcus spp (4)): 16 to 125 µg/mL
- MBEC, Staphylococcus spp (4) [14]: 125 to 250 µg/mL
- Persisters, active concentration, Staphylococcus spp (4) ([4]; persister cells): >500 µg/mL
- MBEC [alone], P. aeruginosa ATCC BAA-47 biofilm cells ([5]; agent alone): > 500 µg/mL
- NP108 concentration giving complete inhibition of bacterial growth, P. aeruginosa ATCC BAA-47 biofilm cells ([5]; with 31.25 μg/ml cysteamine): 500 µg/mL
- MBEC NP108[combination], P. aeruginosa ATCC BAA-47 biofilm cells ([5]; with 62.5 to 500 μg/ml cysteamine): 250 µg/mL
- MBEC, S. aureus (MRSA) DSM 11729 biofilm cells ([6]; agent alone): 125 µg/mL
- MBEC NP108[combination], S. aureus DSM 11729 biofilm cells ([6]; with 62.5 μg/ml cysteamine): 31.25 µg/mL
- activity against persister cells of P. aeruginosa ATCC BAA-47 ([9]; relative viability remained significant, FIG. 12): lack of activity
- activity against persister cells of S. aureus DSM 11729 [15]: lack of activity
- bactericidal concentration, S. aureus DSM 11729 ([16]; agent alone): 125 µg/mL
- bactericidal concentration of NP108 in combination, S. aureus DSM 11729 ([16]; with ≥80 μg/ml cysteamine): 62.5 µg/mL
- bactericidal concentration of NP108 in combination, S. aureus DSM 11729 ([16]; with ≥160 μg/ml cysteamine): 31.25 µg/mL
- bactericidal concentration, P. aeruginosa ATCC BAA-47 ([17]; agent alone): 250 µg/mL
- bactericidal concentration of NP108 in combination, P. aeruginosa ATCC BAA-47 ([17]; with 320 μg/ml cysteamine): 125 µg/mL
